Experimental data from article PMC5569447 (Iranian Journal of Basic Medical Sciences, 2017).
Peptide text beside a SMILES is read from it.

tested on: Mtb strain H37Rv ATCC 27294; conditions: 24 h

Compound | MABA MIC [µM]
CC(C)[C@H](NC(=O)CN)C(=O)N1CCC[C@H]1C(=O)NCC(=O)O [GVPG, glycine-valine-proline-glycine] (H-GVPG-OH) | 200
N=C(N)NCCC[C@H](NC(=O)[C@@H]1CCCN1)C(=O)NCC(=O)O [PRG] (H-Pro-Arg-Gly-OH) | >800
N=C(N)NCCC[C@H](NC(=O)[C@@H]1CCCN1)C(=O)N1CCC[C@H]1C(=O)O [PRP] (H-Pro-Arg-Pro-OH) | >800
CC(C)[C@H](NC(=O)[C@@H](NC(=O)[C@@H]1CCCN1)[C@@H](C)O)C(=O)O [PTV] (H-Pro-Thr-Val-OH) | >800
C[C@@H](O)[C@H](NC(=O)[C@@H](N)CCC(N)=O)C(=O)N[C@@H](CCC(N)=O)C(=O)O [QTQ] (H-Gln-Thr-Gln-OH) | >800
N=C(N)NCCC[C@H](NC(=O)[C@@H]1CCCN1C(=O)[C@@H](N)CCCNC(=N)N)C(=O)O [RPR, arginine-proline-arginine] (H-Arg-Pro-Arg-OH) | 200
N[C@@H](CO)C(=O)NCC(=O)N1CCC[C@H]1C(=O)O [SGP] (H-Ser-Gly-Pro-OH) | >800
N=C(N)NCCC[C@H](NC(=O)[C@@H]1CCCN1C(=O)[C@@H](N)CO)C(=O)O [SPR] (H-Ser-Pro-Arg-OH) | >800
N=C(N)NCCC[C@H](NC(=O)[C@@H](N)CO)C(=O)N1CCC[C@H]1C(=O)O [SRP] (H-Ser-Arg-Pro-OH) | >800
